Experimental data published in patent publication US20230112470A1, “USE OF EGFR/HER2 TYROSINE KINASE INHIBITORS AND/OR HER2/HER3 ANTIBODIES FOR THE TREATMENT OF CANCERS WITH NRG1 FUSIONS” (Board of Regents, The University of Texas System, priority 2020, published 2023).
Like-named read-outs stand apart in the source and are kept apart here.

Tested on: MDA175-VII (NRG1-DOC4 fusion) cells
Experiment: Cell viability by Cell Titer Glo assay, 72 hours treatment
Type: cell-based
Settings: for IC50: read-out: Average IC50
Protocol: FIG. 1B. Representative dose response curves of MDA175-VII (NRG1-DOC4 fusion) treated with the indicated inhibitors for 72 hours. Cell viability was determined by Cell Titer Glo Assay.
Cell viability was determined by the Cell Titer Glo assay.
Drug screening and IC50 determination. Drug screening is performed as previously described. Briefly, cells are plated in 384-well plates (Greiner Bio-One) at 2000-3000 cells per well in technical triplicate. Seven different concentrations of covalent EGFR/HER2 TKIs and/or HER2/HER3 targeting antibodies or DMSO vehicle are added to reach a final volume of 40 μL per well. After 72 hours, 11 μL of Cell Titer Glo (Promega) is added to each well. Plates are incubated for a minimum of 10 minutes, and bioluminescence is determined using a FLUOstar OPTIMA plate reader (BMG LABTECH). Raw bioluminescence values are normalized to DMSO control treated cells, and values are plotted in GraphPad Prism. […] Drug screens are performed in technical triplicate on each plate and either duplicate or triplicate biological replicates.

[1] = MDA175-VII (NRG1-DOC4 fusion) cells, single HER2 inhibitor, 72 hours
[2] = MDA175-VII cells, anti-HER2 antibody alone (+DMSO), 72 hours

How did the IC50 [1] turn out when `CCOc1cc2ncc(C#N)c(Nc3ccc(OCc4ccccn4)c(Cl)c3)c2cc1NC(=O)/C=C/[C@H]1CCCN1C` [Pyrotinib, pyrotinib] was run?
The IC50 was 10.4 nM.

How did the IC50 [1] turn out when `C=CC(=O)Nc1cc(Nc2nccc(-c3cn(C)c4ccccc34)n2)c(OC)cc1N(C)CCN(C)C` [Osimertinib, osimertinib] was run?
The IC50 was 459 nM.

`CS(=O)(=O)CCNCc1ccc(-c2ccc3ncnc(Nc4ccc(OCc5cccc(F)c5)c(Cl)c4)c3c2)o1` [Lapatinib, lapatinib] was tested. Which IC50 [1] did it give?
Its IC50 is 98.6 nM.

For `COc1cc2ncnc(Nc3ccc(F)c(Cl)c3)c2cc1NC(=O)/C=C/CN1CCCCC1` [Dacomitinib, dacomitinib], which IC50 [1] is on record?
The IC50 was 1.18 nM.

Which IC50 (72 h) does the source give for `CCOc1cc2ncc(C#N)c(Nc3ccc(OCc4ccccn4)c(Cl)c3)c2cc1NC(=O)/C=C/CN(C)C` [Neratinib, neratinib] here?
The IC50 was 0.747 nM.

With `CN(C)C/C=C/C(=O)Nc1cc2c(Nc3ccc(F)c(Cl)c3)ncnc2cc1O[C@H]1CCOC1` [Afatinib, afatinib] as the compound, how does the IC50 [1] read?
Its IC50 is 0.891 nM.

`C#Cc1cccc(Nc2ncnc3cc(OCCOC)c(OCCOC)cc23)c1` [Erlotinib, erlotinib] was tested. Which IC50 [1] did it give?
Its IC50 is 1440 nM.

`C=CC(=O)N1CCC[C@@H](n2nc(-c3ccc(Oc4ccccc4)cc3)c3c(N)ncnc32)C1` [Ibrutinib, ibrutinib] was tested. Which IC50 [1] did it give?
Its IC50 is 86.9 nM.

For `CNC(=O)CN1CCC(Oc2cc3c(Nc4cccc(Cl)c4F)ncnc3cc2OC)CC1` [Sapitinib, sapitinib], which IC50 [1] is on record?
Its IC50 is 316 nM.

Which results are given for “Pertuzumab: recombinant, humanized monoclonal antibody that inhibits dimerization of HER2”?
IC50 [2]: 51.5 nM; inhibition of cell viability (in words) (MDA175-VII cells, single agent): potently inhibited cell viability

T-DM1 was tested. Which IC50 [2] did it give?
The IC50 was 653 nM.
